Read-outs that look alike come from different tables or passages of the source.

In series [1] the test system is Cor.4U hiPSC-CMs. In words: ATP level (CellTiter-Glo) in hiPSC-CMs. Format: cell-based, human. The protocol: ATP content was measured using the CellTiter-Glo Luminescent Cell Viability Assay (Promega) following the manufacturer’s protocol. After adding CellTiter-Glo reagents and incubation, luminescence was quantified using a Synergy H1 plate reader (BioTek Instruments). ATP standards were prepared from 0.01 to 5 μM. For each drug, we fitted a four-parameter log-logistic model to calculate ED50 at day 5 (Fig S1). To rank the cellular toxicity of the eight TKIs (Fig 1T), we calculated (EC50-Cmax)/(EC50+Cmax) and arranged from the smallest to the biggest for increasing cellular toxicity.

For another series, the system named is HELP hiPSC-CMs. Nature of the series: CardioExcyte 96 microelectrode array: base impedance and extracellular field potential. Format: cell-based, human. The settings on record: fixed doses: 10 µM, crizotinib and ponatinib 3.16 µM; up to 24 h. The protocol: HELP hiPSC-CMs were seeded evenly into the 96-well microelectrode array, NSP-96 0.6mm sensor plate (Nanion technologies), at 50,000 cells per well. Measurements were started after 3-5 days of culture of these cells and until the impedance and the extracellular field potential are stable. Measurements were taken a few times before drug addition, and every 30~60 minutes after the drugs were added at 2x concentration. Values were averaged from 3 wells per group. Beat rate, amplitude of impedance, base impedance and FPDc were calculated by the Cardio Excyte Control 96 software package (Nanion Technologies).

The subject of series [2] is NRCMs. Nature of the series: Seahorse assay: oxygen consumption and extracellular acidification. Format: cell-based, rat. The note with it: 24 h; fixed doses: 10 µM, crizotinib and ponatinib 3.16 µM. The protocol: Rats were euthanized by decapitation and thoracic cavity was opened with scissors and hearts were popped out of the opening gently with fingers. Hearts were clipped and put in HBSS immediately; 20–40 hearts were collected into one sterile vial containing a magnetic stir bar and 1 mL digestive media made of 0.1% trypsin (Macklin) and 0.05% collagenase (Gibco) in HBSS. Hearts were minced until they were uniform in size. Digestive media was added to 10 mL for 40 hearts and stirred gently for 6 min. Supernatant was discarded and the digestion was repeated once; 10 mL digestive media was added and stirred gently for 10 min. The supernatant with cells were collected and the digestion and collection were repeated 4 times. Cells were centrifuged at 1200 rpm for 5 min, resuspended in media (Dulbecco’s modified Eagleʼs medium (Gibco)) with 10% fetal bovine serum (FBS; VISTECH), 1% penicillin–streptomycin, and 1% 0.1 M 5-bromo-2-deoxyuridine solution (Shanghai Yuanye) and filtered through a 40-μm cell strainer. Cells were seeded on a 100-mm plastic dish and cultured in a 5% CO2 incubator at 37 °C for 2 h to allow non-myocytes to adhere to the plate. The dish was swirled and media gently pipetted up and down to detach lightly attached cardiomyocytes. The collected myocytes were seeded in the same media described before; 48 h after plating, medium was exchanged to fresh DMEM (Gibco) with or without 2% FBS. All drug treatments were performed after this media change.
NRCMs were seeded evenly into the Seahorse XF96 cell culture plates (Agilent) and cultured in DMEM high glucose with 2% FBS. About 2 hours before the test, cells were moved to a non-CO2 incubator at 37 ° C and incubated for 1 hour. 1 hour prior to the test, culture media was replaced with the Seahorse Basal DMEM at 37°C (with appropriate concentration of glucose, 4mM L-glutamine, 1 mM sodium pyruvate and 1% penicillin-streptomycin solution) and incubated in a non-CO2 incubator at 37°C for 1 hour. Drugs were prepared at 8x to 10x concentrations with the corresponding seahorse media as in each well and added into ports of Seahorse XF96 cartridge plates which have been hydrated overnight. XFe96 Extracellular Flux Analyzer (Agilent) was used to measure oxygen consumption rate and extracellular acidification rate of cells with different drug treatments.

Series [3] relates to NRCMs. Nature of the series: Mitochondrial membrane potential by TMRE staining. Format: cell-based, rat. The settings on record: 24 h of treatment.
Excerpt: Fig S3 Mitochondrial membrane potential changes in response to TKIs. (A) Raw images of TMRE staining in NRCMs treated with different drugs. (B) Fold changes in mitochondrial membrane potential at different treatments.
Series [4] has as its system Phospho-eIF2α, XBP1s, ATF6 (cleaved). Nature of the series: Western blot of ER stress effectors in NRCMs. Format: cell-based, rat.
Description: Cells were homogenized in the RIPA lysis buffer (Applygen) containing protease and phosphatase inhibitor cocktails (Bimake). The extract was spun at 12,000xg for 20min at 4°C. Total protein was measured by BCA (Thermofisher) and resolved by sodium dodecyl sulfate–polyacrylamide gel electrophoresis (SDS-PAGE). Proteins were blotted to polyvinylidene difluoride membranes (Amersham). Blots were blocked with non-fat milk (BBI Life Sciences) and incubated with antibodies against ATF6 (proteintech), phospho-eIF2α (ABclonol), XBP1 (ABclonol) and GAPDH (proteintech). Goat anti-rabbit IgG, goat anti-mouse IgG were incubated with the blots for 1 hour at room temperature. After 3 washes with 1xTBST (50 mM Tris-Cl, 150 mM NaCl, 0.1% Tween 20, pH 7.5), the blots were developed with the ECL Plus Kit (Absin). Relative protein expression was quantified by optical density and normalized to GAPDH.
The test system of series [5] is NRCMs. Nature of the series: ROS by H2DCFDA staining and flow cytometry. The note with it: 3 h; 10 µM afatinib, 10 µM sorafenib, 5.62 µM ponatinib. As to the method: For ROS assessment, cells were washed with PBS once and stained with 10μM H2DCFHDA (MCE) in phenol red-free DMEM (Procell) in a humid incubator with 5% CO2 at 37°C for 30 minutes. Cells were washed with PBS twice and dissociated to single cells before flow cytometry analysis at the FITC channel. For lipid peroxidation measurement, cells were washed with PBS once and stained with 2μM C11-bodipy^581/591 (Cayman) in phenol red-free DMEM (Procell) in a humid incubator with 5% CO2 at 37°C for 30 minutes. Cells were washed with PBS twice and dissociated to single cells before flow cytometry analysis at both the FITC and the PE channels. Fluorescence of the oxidized C11-bodipy were acquired through the FITC channel (Ex/Em=488/520nm) and that of the non-oxidized C11-bodipy through the PE channel (Ex/Em=555/624nm).

The subject of series [6] is NRCMs. In words: Calcium staining with Calbryte 520 AM. The note with it: 0.5 and 1 h; 10 µM afatinib, 10 µM sorafenib, 5.62 µM ponatinib. Format: cell-based, rat.
In a further series the test system is TNNT2 protein in NRCMs. In words: TNNT2 immunofluorescence. Format: cell-based, rat. The settings on record: 24 h; 10 µM afatinib, 10 µM sorafenib, 5.62 µM ponatinib. As to the method:
Cells cultured in multi-well plates were fixed with 4% paraformaldehyde (Sigma) for 30 minutes at room temperature, washed 3 times with PBS, and permeabilized with 0.2% Tritonx100 (Applygen) for 15 minutes. Then, cells were blocked with 5% normal goat serum (Bioss) for 1-hr at room temperature and probed with primary antibodies against TNNT2 (proteintech) or NF-κB (CST) overnight at 4°C. Secondary antibodies (Jackson Immuno Research Laboratories, Inc.) and 0.4ug/mL DAPI (Coolaber) were applied at room temperature for 1 hour. Immunofluorescence pictures were taken by ImageXpress Micro Confocal-AWES (Molecular Devices).

In series [7] the test system is Cor.4U hiPSC-CMs. Also noted: method as in GSE114686. The settings on record: ref GSE114686, cited from earlier work.
A further series concerns Sprague-Dawley rats. Nature of the series: Rat gavage cardiotoxicity model: survival, heart and body weight. The settings on record: day 7; ponatinib 15 mg/kg, sorafenib 50 mg/kg gavage once daily.

Description for Sprague-Dawley rats: All experiments were performed in accordance with relevant guidelines and regulations approved by the Institutional Animal Care and Use Committee (IACUC) at Peking University Health Science Center. Sprague-Dawley rats (170-200g) were purchased from Beijing Vital River Laboratory Animal Technology. Forty-eight male rats were randomly divided into six groups, with 8 animals per group. […] The gavage was done daily starting at 10am. At the end of the experiments, rats were euthanized by CO2 about 5~6 hours after the last gavage, and then hearts were harvested for further study. Left ventricular muscle was dissected and divided into 3 parts with similar size, one of which was used for RNA extraction and qRT-PCR.

For `CNC(=O)c1cc(Oc2ccc(NC(=O)Nc3ccc(Cl)c(C(F)(F)F)c3)cc2)ccn1` [sorafenib], the “effect on ATP levels” value with Cor.4U hiPSC-CMs [1] (0.32 to 10 µM, day 1 to day 5) is listed as “slight increase in the ATP level at day 1, but decrease at day 5”. Moreover, the “EC50 (ATP) compared with maximal plasma concentration (Cmax)” value in the series on Cor.4U hiPSC-CMs [1] (day 5) is on record as “lower than or similar to their maximal plasma concentrations (Cmax)”. Besides, the “effect on beat rate, contraction, base impedance and corrected field potential duration” value with HELP hiPSC-CMs is “stopped beating and contraction of hiPSC-CMs after 0.5 h of treatment”. Also, in the series on NRCMs [2], the “basal oxygen consumption rate (OCR)” value is listed as “significant inhibition”; the “maximal, spare and non-mitochondrial oxygen consumption” value is “inhibited maximal, spare, and non-mitochondrial oxygen consumption significantly”. Besides, in the series on NRCMs [3], the mitochondrial membrane potential result is given as “decreased the mitochondrial membrane potential significantly”. In addition, in series [4], the “duration of activated eIF2α phosphorylation” value was found to be 6 h. Besides, in the series with NRCMs [5], the “increase in percent of ROS-high cells” value worked out at 16.2%. The cytosolic calcium concentration entry in the series with NRCMs [6] is “significant cytosolic overload of Ca^2+”. For the same compound, the “TNNT2 protein (cardiac Troponin T2)” value with TNNT2 protein in NRCMs is listed as “had the most effect”. Further, in the series with Cor.4U hiPSC-CMs [7] (Sorafenib 3.16 µM 168 hours), the “CHAC1 logFC” value was 3.62, the “DDIT3 logFC” value was 4.28, the “DNAJB9 logFC” value is on record as 1 and the “TRIB3 logFC” value was 5.51. Also, the “XBP1 logFC” value with Cor.4U hiPSC-CMs [7] (Sorafenib 3.16 µM 168 hours) is recorded as 1.42. Moreover, in the series with Cor.4U hiPSC-CMs [7] (Sorafenib 10 µM 24 hours), the “CHAC1 logFC” value is recorded as 4.55, the “DDIT3 logFC” value is 4.73, the “DNAJB9 logFC” value was 1.43 and the “TRIB3 logFC” value was 5.56. Besides, the “XBP1 logFC” value in the series on Cor.4U hiPSC-CMs [7] (Sorafenib 10 µM 24 hours) was 1.79. Besides, the “heart or body weight” value in the series with Sprague-Dawley rats was “not changed”.

The values are drawn from PMC10108821, “Three tyrosine kinase inhibitors cause cardiotoxicity by inducing endoplasmic reticulum stress and inflammation in cardiomyocytes” (BMC Medicine, 2023).
